Experimental findings from patent publication US7939546B2, “Quinoline derivatives for modulating DNA methylation” (SuperGen, Inc., priority 2007, dated 2011) are described below.

Where a name gives a salt, the structure may show the parent alone.

The target in the assay is DNMT1 (Homo sapiens, UniProt P26358). As to the kind of experiment: Selective depletion of DNMT1 by Western blot in treated HCT116 cells. Format: cell-based. Also noted: Protein extracts (equivalent to 100 μg) were isolated from HCT116 cells; endogenous in cells; host or cells: HCT116. The conditions noted are these: for % DNMT1 protein level remaining at 5 µM: HCT-116, 5 μM; for % DNMT1 protein level remaining at 10 µM: HCT-116, 10 μM. The text has this:
Biol. 2005, 11, 4727-41.]. For DNMT1, commercially available antibodies from Santa Cruz or New England Biolabs were used.
(In general: In western blotting, separated proteins are transferred to a membrane and probed.)

Sequence of DNMT1 (P26358 whole entry): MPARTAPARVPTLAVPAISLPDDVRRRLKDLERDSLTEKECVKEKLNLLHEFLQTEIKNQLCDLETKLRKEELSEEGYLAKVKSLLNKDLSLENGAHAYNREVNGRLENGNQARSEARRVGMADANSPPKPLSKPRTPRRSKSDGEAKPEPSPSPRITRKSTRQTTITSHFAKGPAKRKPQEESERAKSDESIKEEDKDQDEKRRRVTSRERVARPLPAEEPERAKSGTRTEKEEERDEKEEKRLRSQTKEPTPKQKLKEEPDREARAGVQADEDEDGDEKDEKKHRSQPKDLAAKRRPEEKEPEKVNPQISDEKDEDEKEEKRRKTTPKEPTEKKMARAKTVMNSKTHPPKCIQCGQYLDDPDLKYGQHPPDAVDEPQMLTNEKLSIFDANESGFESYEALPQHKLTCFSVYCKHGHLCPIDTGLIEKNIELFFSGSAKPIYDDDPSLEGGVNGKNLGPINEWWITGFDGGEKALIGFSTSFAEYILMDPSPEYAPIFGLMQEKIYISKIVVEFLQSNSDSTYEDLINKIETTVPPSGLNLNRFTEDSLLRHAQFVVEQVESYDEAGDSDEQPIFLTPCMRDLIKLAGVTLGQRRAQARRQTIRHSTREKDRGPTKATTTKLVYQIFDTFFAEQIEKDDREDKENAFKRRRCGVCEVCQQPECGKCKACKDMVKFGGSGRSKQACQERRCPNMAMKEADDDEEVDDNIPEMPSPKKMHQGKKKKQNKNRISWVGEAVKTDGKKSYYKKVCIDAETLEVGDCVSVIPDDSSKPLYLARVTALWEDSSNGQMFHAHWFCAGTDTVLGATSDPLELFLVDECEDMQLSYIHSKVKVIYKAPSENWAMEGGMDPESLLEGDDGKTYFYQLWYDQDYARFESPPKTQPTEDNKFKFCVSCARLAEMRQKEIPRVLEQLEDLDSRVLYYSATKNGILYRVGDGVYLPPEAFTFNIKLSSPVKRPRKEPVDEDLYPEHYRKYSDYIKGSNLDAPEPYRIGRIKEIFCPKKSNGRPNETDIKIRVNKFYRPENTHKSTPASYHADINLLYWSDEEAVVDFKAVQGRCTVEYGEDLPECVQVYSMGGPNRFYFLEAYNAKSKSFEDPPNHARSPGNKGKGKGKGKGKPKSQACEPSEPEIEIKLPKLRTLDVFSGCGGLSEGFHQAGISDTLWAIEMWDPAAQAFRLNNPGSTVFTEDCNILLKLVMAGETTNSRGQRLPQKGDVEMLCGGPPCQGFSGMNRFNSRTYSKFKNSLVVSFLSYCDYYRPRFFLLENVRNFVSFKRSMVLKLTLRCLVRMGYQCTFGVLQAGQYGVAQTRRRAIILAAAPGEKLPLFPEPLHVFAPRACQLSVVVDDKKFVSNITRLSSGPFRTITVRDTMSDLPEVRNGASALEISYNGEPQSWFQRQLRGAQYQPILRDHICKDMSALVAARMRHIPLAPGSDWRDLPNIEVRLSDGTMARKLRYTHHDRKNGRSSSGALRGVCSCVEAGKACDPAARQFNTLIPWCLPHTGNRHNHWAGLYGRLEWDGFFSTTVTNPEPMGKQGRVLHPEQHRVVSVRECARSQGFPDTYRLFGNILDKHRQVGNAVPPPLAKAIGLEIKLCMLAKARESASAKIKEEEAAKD

Take `Cc1cc(Nc2cccc(C(=O)Nc3ccc(Nc4ccnc5ccc(N(C)C)cc45)cc3)c2)nc(N)n1` [Cpd. EE, 4-[4-({3-[(2-amino-6-methyl-4-pyrimidinyl)amino]benzoyl}amino)anilino]-6-(dimethylamino)quinolinium chloride]: the % DNMT1 protein level remaining at 5 µM was found to be 30% and the % DNMT1 protein level remaining at 10 µM was determined as 10%.
As for `Cl.Cl.O=C(Nc1ccc(Nc2ccncc2)cc1)c1ccc(Nc2ccnc3ccccc23)cc1` [Cpd. EEE2, n-[4-(pyridin-4-ylamino)phenyl]-4-(quinolin-4-ylamino)benzamide dihydrochloride], the “% DNMT1 Level” value reads like this: (5 μM) 3%; (10 μM) 0%.
For the molecule `Cc1cc(Nc2cccc(C(=O)Nc3ccc(Nc4ccnc5ccccc45)cc3)c2)nc(N)n1` [Cpd. FF1, 3-[(2-amino-6-methyl-4-pyrimidinyl)amino]-N-[4-(4-quinolinylamino)phenyl]benzamide dihydrochloride], the % DNMT1 protein level remaining at 5 µM worked out at 15% and the % DNMT1 protein level remaining at 10 µM worked out at 5%.
In the same order, the values of `Nc1cc(Nc2cccc(C(=O)Nc3ccc(Nc4ccnc5ccccc45)cc3)c2)nc(N)n1` [Cpd. FF2, 3-[(2,6-Diamino-4-pyrimidinyl)amino]-N-[4-(4-quinolinylamino)-phenyl]benzamide dihydrochloride] are 85% and 83%.
`C[n+]1ccc(Nc2ccc(NC(=O)c3ccc(Nc4ccnc5ccc([N+](=O)[O-])cc45)cc3)cc2)cc1` [Cpd. G, 1-methyl-4-(4-(4-(6-nitroquinolin-4-ylamino)benzamido)phenylamino)pyridinium chloride hydrochloride]: the % DNMT1 protein level remaining at 5 µM was 95% and the % DNMT1 protein level remaining at 10 µM worked out at 95%. Moreover, the % DNMT1 protein level remaining at 100 µM (HCT-116, 100 μM) was determined as 100%.
On to `Cc1cc(Nc2ccc(C(=O)Nc3ccc(Nc4ccnc5ccccc45)cc3)cc2)nc(N)n1` [Cpd. GG1, 4-[(2-amino-6-methyl-4-pyrimidinyl)amino]-N-[4-(4-quinolinylamino)phenyl]benzamide dihydrochloride], for which the % DNMT1 protein level remaining at 5 µM was 25% and the % DNMT1 protein level remaining at 10 µM stood at 20%.
Taken in the same sequence, the figures for `Cc1cc(Nc2ccc(C(=O)Nc3ccc(Nc4ccnc5cc(N)ccc45)cc3)cc2)nc(N)n1` [Cpd. GG2, 4-[(2-Amino-6-methyl-4-pyrimidinyl)amino]-N-{4-[(7-amino-4-quinolinyl)amino]phenyl}benzamide dihydrochloride] were 85% and 52%.
In the same order, the values of `Cc1cc(Nc2ccc(C(=O)Nc3ccc(Nc4ccnc5ccc(N)cc45)cc3)cc2)nc(N)n1` [Cpd. GG3, 4-[(2-amino-6-methyl-4-pyrimidinyl)amino]-N-{4-[(6-amino-4-quinolinyl)amino]phenyl}benzamide dihydrochloride] are 110% and 10%.
As to `Cc1cc(Nc2ccc(C(=O)Nc3ccc(Nc4ccnc5ccc([N+](=O)[O-])cc45)cc3)cc2)nc(N)n1` [Cpd. GG4, 4-[(2-Amino-6-methyl-4-pyrimidinyl)amino]-N-{4-[(6-nitro-4-quinolinyl)amino]phenyl}benzamide dihydrochloride], the % DNMT1 protein level remaining at 10 µM is 90%.
On the same count and under the same terms, the figure for `Cc1cc(Nc2ccc(C(=O)Nc3ccc(Nc4ccnc5cc([N+](=O)[O-])ccc45)cc3)cc2)nc(N)n1` [Cpd. GG5, 4-[(2-Amino-6-methyl-4-pyrimidinyl)amino]-N-{4-[(7-nitro-4-quinolinyl)amino]phenyl}benzamide dihydrochloride] is 90%.
Still for that read-out and setting: to `Cc1cc(Nc2ccc(C(=O)Nc3ccc(Nc4ccnc5ccc(N(C)C)cc45)cc3)cc2)nc(N)n1` [Cpd. HH, 4-[(2-amino-6-methyl-4-pyrimidinyl)amino]-N-(4-{[6-(dimethylamino)-4-quinolinyl]amino}phenyl)benzamide dihydrochloride] belongs 90%.
Take `C/C(=N\N=C(N)N)c1cccc(NC(=O)c2ccc(Nc3ccnc4ccc(N(C)C)cc34)cc2)c1` [Cpd. JJ1, (E)-N-[3-(1-{(diaminomethylene)hydrazono}ethyl)phenyl]-4-[6-(dimethylamino)quinolin-4-ylamino]benzamide dihydrochloride]: the % DNMT1 protein level remaining at 5 µM was 75% and the % DNMT1 protein level remaining at 10 µM came out at 70%.
Taken in the same sequence, the figures for `C/C(=N\N=C(N)N)c1cccc(NC(=O)c2ccc(Nc3ccnc4ccccc34)cc2)c1` [Cpd. JJ2, (E)-N-[3-(1-{(Diaminomethylene)hydrazono}ethyl)phenyl]-4-(quinolin-4-ylamino)benzamide dihydrochloride] were 147% and 130%.
Turning to `Cc1cc(Nc2ccc(NC(=O)c3ccc(Nc4ccnc5c(F)c(F)c(F)cc45)cc3)cc2)nc(N)n1` [Cpd. KK, n-[4-(2-amino-6-methylpyrimidin-4-ylamino)phenyl]-4-(6,7,8-trifluoroquinolin-4-ylamino)benzamide dihydrochloride], the % DNMT1 protein level remaining at 5 µM is 82% and the % DNMT1 protein level remaining at 10 µM worked out at 20%.
In the same order, the values of `C/C(=N\N=C(N)N)c1ccc(NC(=O)c2ccc(Nc3ccnc4ccc(N(C)C)cc34)cc2)cc1` [Cpd. NN, (E)-N-(4-(1-((Diaminomethylene)hydrazono)ethyl)phenyl)-4-(6-(dimethylamino)quinolin-4-ylamino)benzamide Dihydrochloride] are 70% and 70%.
Taken in the same sequence, the figures for `C/C(=N\N=C(N)N)c1ccc(C(=O)Nc2ccc(Nc3ccnc4ccc(N(C)C)cc34)cc2)cc1` [Cpd. PP, 4-[(1E)-N-(diaminomethylene)ethanehydrazonoyl]-N-(4-{[6-(dimethylamino)-4-quinolinyl]amino}phenyl)benzamide dihydrochloride] were 60% and 70%.
Taken in the same sequence, the figures for `C/C(=N\N=C(N)N)c1cccc(C(=O)Nc2ccc(Nc3ccnc4ccc(N(C)C)cc34)cc2)c1` [Cpd. QQ, 4-[4-({3-[(1E)-N-(diaminomethylene)ethanehydrazonoyl]-benzoyl}amino)anilino]-6-(dimethylamino)quinolinium chloride] were 60% and 50%.
Consider `Nc1cc(Nc2cccc(C(=O)Nc3ccc(Nc4ccnc5ccc([N+](=O)[O-])cc45)cc3)c2)nc(N)n1` [Cpd. RR1, 3-[(2,6-diamino-4-pyrimidinyl)amino]-N-{4-[(6-nitro-4-quinolinyl)amino]phenyl}benzamide dihydrochloride], for which the % DNMT1 protein level remaining at 10 µM was found to be 100%.
Take `Cc1cc(Nc2cccc(C(=O)Nc3ccc(Nc4ccnc5ccc([N+](=O)[O-])cc45)cc3)c2)nc(N)n1` [RR2, 3-[(2-amino-6-methyl-4-pyrimidinyl)amino]-N-{4-[(6-nitro-4-quinolinyl)amino]phenyl}benzamide dihydrochloride]: the % DNMT1 protein level remaining at 10 µM is 100%.
The same measure, in the same setting: to `Cc1cc(Nc2cccc(C(=O)Nc3ccc(Nc4ccnc5ccc(N)cc45)cc3)c2)nc(N)n1` [RR3, 3-[(2-Amino-6-methyl-4-pyrimidinyl)amino]-N-{4-[(6-amino-4-quinolinyl)amino]phenyl}benzamide dihydrochloride] belongs 100%.
